# Data from patent publication US10835719B2, “Drug releasing coatings for medical devices” (Lutonix, Inc., priority 2006, dated 2020).
# Key:
# [1] = Stability of additive with paclitaxel under ethylene oxide sterilization, heating and aging; type: physicochemical; details: additive formulated with paclitaxel; reacted with paclitaxel
# [2] = cited from earlier work
# albumin = albumin (Homo sapiens, UniProt P02768); details: cited from earlier work
# Sequence of albumin (P02768 25-609): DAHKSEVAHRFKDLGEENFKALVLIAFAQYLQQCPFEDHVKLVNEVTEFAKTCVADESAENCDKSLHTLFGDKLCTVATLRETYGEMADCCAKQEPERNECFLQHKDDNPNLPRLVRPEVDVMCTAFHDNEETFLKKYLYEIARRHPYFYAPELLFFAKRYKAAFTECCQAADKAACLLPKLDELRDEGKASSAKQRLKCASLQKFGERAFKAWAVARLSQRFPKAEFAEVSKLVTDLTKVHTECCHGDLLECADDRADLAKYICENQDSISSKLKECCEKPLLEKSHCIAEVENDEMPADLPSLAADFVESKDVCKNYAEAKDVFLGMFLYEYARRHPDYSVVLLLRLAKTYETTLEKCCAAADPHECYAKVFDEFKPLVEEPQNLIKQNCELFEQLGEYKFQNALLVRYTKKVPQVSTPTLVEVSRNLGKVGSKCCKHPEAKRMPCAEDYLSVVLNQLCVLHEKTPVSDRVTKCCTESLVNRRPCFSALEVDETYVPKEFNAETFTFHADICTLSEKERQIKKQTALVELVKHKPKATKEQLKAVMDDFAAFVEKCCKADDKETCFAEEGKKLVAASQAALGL
molecule,measurement,setting,value
OCCNCCO [diethanolamine],"stability under ethylene oxide sterilization, heating, and aging process",[1],not stable
O=C(O)c1cc(O)ccc1O [gentisic acid],"stability under ethylene oxide sterilization, heating, and aging process",[1],not stable
"COc1ccc(O)c(C(C)(C)C)c1 [Butylated hydroxyanisole (BHA), Butylated hydroxyanisole]",log P,[2],1.31
O=C1O[C@H]([C@@H](O)CO)C(O)=C1O [ascorbic acid],"stability under ethylene oxide sterilization, heating, and aging process",[1],not stable
O=C(O)c1ccccc1 [benzoic acid],"stability under ethylene oxide sterilization, heating, and aging process",[1],not stable
CO[C@H]1C[C@@H]2CC[C@@H](C)[C@@](O)(O2)C(=O)C(=O)N2CCCC[C@H]2C(=O)O[C@H]([C@H](C)C[C@@H]2CC[C@@H](O)[C@H](OC)C2)CC(=O)[C@H](C)/C=C(\C)[C@@H](O)[C@@H](OC)C(=O)[C@H](C)C[C@H](C)/C=C/C=C/C=C/1C [rapamycin],protein bound,albumin,92%
PEG-20 sorbitan monolaurate [Tween 20],log P,[2],about 3.0
